Results published in PMC8584424, “Synthesis of Novel 2-Thiouracil-5-Sulfonamide Derivatives as Potent Inducers of Cell Cycle Arrest and CDK2A Inhibition Supported by Molecular Docking” (International Journal of Molecular Sciences, 2021).

How the values were obtained:
[1] = system: MCF-7 (breast) cancer cells; test: In vitro cytotoxicity assessment (MTT), MCF-7; assay type: cell-based, human; conditions: for IC50: Homo sapiens, MCF7, 48 h, MTT, mean of three experiments ± SD, NA: not active; for SI (selectivity index) MCF-7: IC50 in WI38 normal cells / IC50 in MCF-7
Excerpt: (§1) Four cancer cell lines were used in this study viz ovarian (A-2780), colon (HT-29), breast (MCF-7), and liver (HepG2) cancer cells. They were provided by the National Institute of Cancer, Cairo University (Cairo, Egypt). The selection of those cancer cells was encouraged by the stated anticancer activity of a number 5-Fluorouracil hybrids against the mentioned cancer cells and based on the reported cytotoxic activity of a large range of bioactive cores containing sulfonamide moiety.
(§2) Cells were seeded in 96 well plates at a density of 2 × 10^4 and incubated to allow the attachment for 24 h. Then the cells were treated at different concentrations (2.5–10 μM) with 5-FU as a positive control or the synthesized compounds for 48h. 0.1% DMSO was used as a negative control. Afterward, cells were washed using PBS and the viability of cells was evaluated utilizing in vitro toxicology assay kit, MTT Based (Stock No. TOX-1, Sigma-Aldrich, Saint Louis, Missouri, USA), per the manufacturer’s instructions. The plates were read at 570 nm. IC50 was calculated using a sigmoidal dose-response curve (GraphPad Prism version 5 for Windows (GraphPad Inc., USA)). Data are presented as the mean of the three individual experiments. The degree of selectivity of the active target compounds relative to WI38 normal cell lines is expressed as previously described. Selectivity index (SI) = IC50 of a pure compound in a normal cell line/IC50 of the same pure compound in a cancerous cell line.

WI38 normal cells = test: In vitro cytotoxicity assessment (MTT), normal cells; assay type: cell-based; conditions: WI-38; normal human cell line WI38, MTT
Procedure: as §2, with “Then the cells were treated at different concentrations (2.5–10 μM) with 5-FU as a positive control or the synthesized compounds for 48h.” left out

[2] = system: A-2780 (ovarian) cancer cells; test: In vitro cytotoxicity assessment (MTT), A-2780; assay type: cell-based, human; conditions: for IC50: Homo sapiens, A2780, 48 h, MTT, mean of three experiments ± SD, NA: not active; for SI (selectivity index) A-2780: IC50 in WI38 normal cells / IC50 in A-2780
Excerpt: as §1, §2

[3] = system: HT-29 (colon) cancer cells; test: In vitro cytotoxicity assessment (MTT), HT-29; assay type: cell-based, human; conditions: for IC50: Homo sapiens, HT-29, 48 h, MTT, mean of three experiments ± SD, NA: not active; for SI (selectivity index) HT-29: IC50 in WI38 normal cells / IC50 in HT-29
Excerpt: as §1, §2

CDK2/CyclinA2 = biological target: T1, CDK2/CyclinA2 (Homo sapiens, UniProt P24941); test: In vitro inhibitory screening of CDK2 (CDK2 Assay kit, Kinase-Glo MAX); assay type: biochemical; conditions: CDK2/CyclinA2, 30 °C 45 min; mean of three experiments ± SD; read-out: CDK2 Protein Kinase (IC50 in µM)
T1 construct: purchased #79599
Procedure: To measure CDK2/CyclinA2 activity, the CDK2 Assay kit #79599 was used for screening and profiling applications, together with Kinase-Glo® MAX (Promega#V6071) as a detection reagent. […] Briefly, 25 μL of the master mixture containing 6 μL Kinase assay buffer + 1 μL ATP + 5 μL CDK substrate peptide + 13 μL distilled water were added to each well. Later, 5 µL of inhibitor buffer only or diluted compound were added to the blank or test inhibitor wells, respectively. Then, 20μL of Kinase assay buffer was added to blank wells. The reaction was started by the addition of 20 μL of CDK2/CyclinA2 enzyme to the wells of the test inhibitor. The final volume was 50 µL in all of the reactions. Incubation was at 30 °C for 45 min for all the enzymatic reactions. Finally, to each well, 50 μL of Kinase-Glo MAX reagent was added. The plate was incubated for 15 min at room temperature then, the luminescence signal was measured using a Bio Tek Synergy 2 microplate reader. Experiments were performed in triplicates.

[4] = system: HepG2 (liver) cancer cells; test: In vitro cytotoxicity assessment (MTT), HepG2; assay type: cell-based, human; conditions: for IC50: Homo sapiens, HepG2, 48 h, MTT, mean of three experiments ± SD, NA: not active; for SI (selectivity index) HepG2: IC50 in WI38 normal cells / IC50 in HepG2
Excerpt: as §1, §2

[5] = system: A-2780, HT-29, MCF-7, and HepG2 cancer cell lines; test: Cytotoxic screening, statements for the whole panel of four cancer cell lines; assay type: cell-based, human; conditions: A-2780, HT-29, MCF-7, HepG2
Excerpt: as §1, §2

SMILES | IC50 [1] [µM] | SI (selectivity index) MCF-7 [1] | IC50 (WI38 normal cells) [µM] | IC50 [2] [µM] | SI (selectivity index) A-2780 [2] | IC50 [3] [µM] | SI (selectivity index) HT-29 [3] | IC50 (CDK2/CyclinA2) [µM] | IC50 [4] [µM] | SI (selectivity index) HepG2 [4] | melting point [°C] | anticancer activity against the four cancer cell lines, in words [5]
Cc1[nH]c(=S)[nH]c(=O)c1S(=O)(=O)Nc1cccc(C(=O)C=Cc2ccc(Br)cc2)c1 [Compound 7c, N-(3-(3-(4-Bromophenyl)acryloyl)phenyl)-6-Methyl-4-Oxo-2-Thioxo-1,2,3,4-Tetrahydro Pyrimidine-5-Sulfonamide] | 11.7 ± 2.07 | 5.38 | 62.7 ± 1.93 | 6.1 ± 0.54 | 10.28 | 8.14 ± 1.95 | 7.71 | 8.2 ± 0.486 | 8.25 ± 0.68 | 7.60 | 335 to 337 | 
COc1ccc(NS(=O)(=O)c2c(C)[nH]c(=S)[nH]c2=O)cc1 [Compound 6b, N-(4-Methoxyphenyl)-6-Methyl-4-Oxo-2-Thioxo-1,2,3,4-Tetrahydropyrimidine-5-Sulfon-Amide] | 2.29 ± 0.63 | 31.29 | 71.7 ± 2 | 2.56 ± 0.45 | 28.00 | 5.1 ± 1.32 | 14.05 | 0.447 ± 0.031 | 2.23 ± 0.55 | 32.13 | 320 to 322 | 
Cc1[nH]c(=S)[nH]c(=O)c1S(=O)(=O)Nc1cccc(C(=O)C=Cc2ccc(Cl)cc2)c1 [Compound 7a, N-(3-(3-(4-Chlorophenyl)acryloyl)phenyl)-6-Methyl-4-Oxo-2-Thioxo-1,2,3,4-Tetrahydro Pyrimidine-5-Sulfonamide] | 6.9 ± 1.33 | 12.04 | 83.1 ± 2 | 12.5 ± 2.1 | 6.66 | 4.2 ± 0.88 | 19.78 | 6.41 ± 0.377 | 10.9 ± 1.72 | 7.61 | 315 to 317 | 
Cc1[nH]c(=S)[nH]c(=O)c1S(=O)(=O)Nc1cccc(C(=O)C=Cc2ccc([N+](=O)[O-])cc2)c1 [Compound 7b, 6-Methyl-N-(3-(3-(4-Nitrophenyl)acryloyl)phenyl)-4-Oxo-2-Thioxo-1,2,3,4-Tetrahydropyrimidine-5-Sulfonamide] | 6.11 ± 0.5 | 13.08 | 79.9 ± 2.56 | 11.1 ± 1.41 | 7.22 | 2.84 ± 0.78 | 28.14 | 0.81 ± 0.026 | 12.4 ± 1.82 | 6.43 | 318 to 320 | 
Cc1[nH]c(=S)[nH]c(=O)c1S(=O)(=O)C1Cc2ccccc2C1=O (stereo not shown) [Compound 5, 6-Methyl-5-(1-Oxo-2,3-Dihydro-1H-Inden-2-Ylsulfonyl)-2-Thioxo-2,3-Dihydropyrimidin-4(1H)-One] | 17.3 ± 2.35 |  |  |  |  | 11.7 ± 1.96 |  |  |  |  | 348 to 350 | low or no anticancer activity
CC(=O)c1cccc(NS(=O)(=O)c2c(C)[nH]c(=S)[nH]c2=O)c1 [Compound 6d, N-(3-Acetylphenyl)-6-Methyl-4-Oxo-2-Thioxo-1,2,3,4-Tetrahydropyrimidine-5-Sulfonamide] | 2.3 ± 0.62 | 32.33 | 74.4 ± 4.74 | 11.7 ± 1.99 | 6.37 | 6.13 ± 0.53 | 12.13 | 0.567 ± 0.021 | 5.24 ± 1.05 |  | 318 to 320 | 
Cc1[nH]c(=S)[nH]c(=O)c1S(=O)(=O)Nc1ccc(Br)cc1 [Compound 6g, N-(4-Bromophenyl)-6-Methyl-4-Oxo-2-Thioxo-1,2,3,4-Tetrahydropyrimidine-5-Sulfonamide] | 7.31 ± 1.21 | 9.65 | 70.6 ± 2.14 | 1.62 ± 0.35 | 43.58 | 5.05 ± 0.83 | 13.98 | 0.485 ± 0.033 | 2.47 ± 0.51 |  | 333 to 335 | 
Cc1[nH]c(=S)[nH]c(=O)c1S(=O)(=O)Cl [Compound 2, 6-Methyl-4-Oxo-2-Thioxo-1,2,3,4-Tetrahydropyrimidine-5-Sulfonyl Chloride] | 16.5 ± 1.4 |  |  | 21.4 ± 2.51 |  | 18 ± 1.04 |  |  | 17 ± 0.93 |  | 324 to 326 | low anticancer activity
Cc1[nH]c(=S)[nH]c(=O)c1S(=O)(=O)C1C(=O)NC(=O)NC1=O [Compound 3, 5-[(6-Methyl-4-Oxo-2-Thioxo-1,2,3,4-Tetrahydropyrimidin-5-Yl)sulfonyl]pyrimidine-2,4,6(1H,3H,5H)-Trione] | 14.9 ± 2.89 |  |  |  |  | 13 ± 2 |  |  |  |  | 344 to 346 | low or no anticancer activity
Cc1[nH]c(=S)[nH]c(=O)c1S(=O)(=O)C1C(=O)CC(C)(C)CC1=O [Compound 4, 5,5-Dimethyl-2-[(6-Methyl-4-Oxo-2-Thioxo-1,2,3,4-Tetrahydropyrimidin-5-Yl)sulfonyl]cyclohexane-1,3-Dione] | 10.8 ± 1.6 |  |  |  |  | 14.2 ± 2.85 |  |  |  |  | 340 to 342 | low or no anticancer activity
